Assay results reported in US9586959B2, “Substituted tricyclic heterocycles as histamine 4 receptor inhibitors” (C&C RESEARCH LABORATORIES, priority 2011, dated 2017).

Tests used:
Assay type in all cases: in vivo
[1] = system: oxazolone-induced atopic dermatitis, Balb/c mice; test: Oxazolone-induced atopic dermatitis model in Balb/c mice; details: BID, oral, days 8-28
Method: Female, Balb/c mice (6 weeks old, 20±3 g) were purchased from OrientBio Co., Ltd. The animals were housed under conditions of controlled temperature (23±3° C.), humidity (50±5%) and lighting with food and water available ad libitum.
On the beginning day (day 1), mice were sensitized by the topical application of 50 μL of 1% oxazolone in acetone and olive oil (4:1 ratio) on the abdominal skin. On day 8, 10, 12, 15, 17, 19, 22, 24 and 26, 25 μL of 0.2% oxazolone was applied topically on the inner side of right ear of each mouse. Between days 8 and 28, the compound of the invention was administered orally (10 mL/kg) twice a day in the morning and afternoon, and on days 12, 19 and 27, the thickness of the right ear of the mouse was measured. On day 28, the ear tissue of the mouse was extracted, fixed in 10% formalin solution, and then a tissue slide was prepared, stained with H&E (hematoxylin & eosin), and then the thickness of the ear was observed (Journal of Investigative Dermatology, 2008, 128, 79-86). Statistical analysis was analyzed using one-way ANOVA with Dunnett test. Values of p<0.05 were considered statistically significant.

[2] = Rat pharmacokinetics (oral); details: plasma, 10 mg/kg, SD rat, 2 mg/mL solution at 5 mL/kg; for AUC(0-inf): read-out: Rat pharmacokinetics AUCinf; for half-life: read-out: Rat pharmacokinetics t1/2 (converted)
Method: The weight of each ICR mouse and SD rat was properly 20˜30 g and 200˜300 g, and dosage of the compound of the present invention was 10 mL/kg for mice and 5 mL/kg for rats, and administered orally using Zonde. Blood collection was performed at 0.25, 0.5, 1, 2, 4, 6, 8 and 24 hours by orbital venous blood collection using a capillary tube coated with an anticoagulant, and then plasma was isolated using a centrifuge and kept in a freezer.
Plasma collected from animals and standard concentration material were pretreated using solid-phase extraction, and concentration of the compound of the invention was determined using a liquid chromatography mass spectrometer (Agilent HPLC, API-3000).
According to the resulting concentration value, the pharmacokinetics parameter was found using WinNonlin (Version 6.2) and half-life (t1/2), maximum blood concentration (Cmax) and infinite area under the curve (AUCinf) are shown in Tables 6 and 7 below.

[3] = system: Dermatophagoides farina-induced atopic dermatitis, NC/Nga mice; test: Dermatophagoides farina-induced atopic dermatitis NC/Nga mouse model; details: BID, oral, 3 weeks, control group (Df) 9.0
Method: Female, NC/Nga mice (3 weeks old, 15-17 g) were purchased from Central Lab. Animal Inc. The animals were housed in conditions of controlled temperature (23±3° C.), humidity (50±5%) and lighting with food and water available ad libitum.
The hair of back of the mice was shaved with clipper, and the remaining hair was removed completely using shaving cream. For barrier disruption, 150 μL of 4% sodium dodecyl sulfate (SDS) was applied to the shaved back skin The Df ointment (100 mg/mouse) was applied twice a week for 3 weeks. The compound were administered orally twice a day in the morning and afternoon for 3 weeks, and then the severity of dermatitis was evaluated on days 2, 7, 10, 14 and 21. The development of (1) erythema/haemorrhage, (2) scarring/dryness, (3) oedema, (4) excoriation/erosion was scored as 0 (none), 1 (mild), 2 (moderate) and 3 (severe). The total skin score was defined as the sum of the individual scores. (Scandinavian Journal of Immunol. 2011, 73, 536-545). Statistical analysis was analyzed using one-way ANOVA with Dunnett test. Values of p<0.05 were considered statistically.

Cmax [2] [ng/mL]	AUC(0-inf) [2] [ng·h/mL]	half-life [2] [h]	Compound	Ear epidermis thickness (% change from control group) ([1]; 100 mg/kg)	Scoring of Skin lesions (day 21) ([3]; 25 mg/kg)	Scoring of Skin lesions (day 21) ([3]; 50 mg/kg)	Ear epidermis thickness (% change from control group) ([1]; 50 mg/kg) [%]
1950	7740	1.88	CN1CCN(c2nc3ncc(Cl)cc3n3cnnc23)CC1 [Compound 4, 8-Chloro-4-(4-methylpiperazin-1-yl)pyrido[2,3-e][1,2,4]triazolo[4,3-a]pyrazine]	47.2%	–	–	–
1330	3110	1.62	Clc1cnc2nc(N3CCNCC3)c3nncn3c2c1 [Compound 7, 8-Chloro-4-(piperazin-1-yl)pyrido[2,3-e][1,2,4]triazolo[4,3-a]pyrazine]	–	–	–	–
2590	4560	1.04	CNC1CN(c2nc3ncc(Cl)cc3n3cnnc23)C1 [Compound 18, 1-(8-Chloropyrido[2,3-e][1,2,4]triazolo[4,3-a]pyrazin-4-yl)-N-methylazetidin-3-amine]	–	–	–	–
–	–	–	CNC1CN(c2nc3ncc(Br)cc3n3nnnc23)C1 [Compound 95, 1-(8-Bromopyrido[2,3-e]tetrazolo[1,5-a]pyrazin-4-yl)-N-methylazetidin-3-amine]	–	–	–	34.9

Compound	Cmax [2] [ng/mL]	AUC(0-inf) [2] [ng·h/mL]	half-life [2] [h]	Ear epidermis thickness (% change from control group) ([1]; 100 mg/kg)	Scoring of Skin lesions (day 21) ([3]; 25 mg/kg)	Scoring of Skin lesions (day 21) ([3]; 50 mg/kg)	Ear epidermis thickness (% change from control group) ([1]; 50 mg/kg) [%]
CNC1CN(c2nc3ncc(Br)cc3n3cnnc23)C1 [Compound 24, 1-(8-Bromopyrido[2,3-e][1,2,4]triazolo[4,3-a]pyrazin-4-yl)-N-methylazetidin-3-amine]	2420	4510	1.3	51.2^1%	7.2	4.4^1	–
